PubChem BioAssay (NCI)
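Where inhibition never reached the appropriate level, the endpoint shown equals the highest concentration tested. Otherwise, values were interpolated linearly from a five-concentration, 48-hour dose response in 96-well plates. GI50 = concentration required for 50% inhibition of growth. The concentration for full growth arrest is given as TGI.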

Columns and labels:
Test in all cases: inhibition of tumour cell growth, NCI panel, 48 h
786-0 renal = system: 786-0 renal
A498 renal = system: A498 renal
A549 NSCLC = system: A549 NSCLC
ACHN renal = system: ACHN renal
BT-549 breast = system: BT-549 breast
CAKI-1 renal = system: CAKI-1 renal
CCRF-CEM leukemia = system: CCRF-CEM leukemia
COLO 205 colon = system: COLO 205 colon
DU-145 prostate = system: DU-145 prostate
EKVX NSCLC = system: EKVX NSCLC
HCC-2998 colon = system: HCC-2998 colon
HCT-116 colon = system: HCT-116 colon
HCT-15 colon = system: HCT-15 colon
HL-60(TB) leukemia = system: HL-60(TB) leukemia
HOP-62 NSCLC = system: HOP-62 NSCLC
HOP-92 NSCLC = system: HOP-92 NSCLC
HS 578T breast = system: HS 578T breast
HT29 colon = system: HT29 colon
IGROV1 ovarian = system: IGROV1 ovarian
KM12 colon = system: KM12 colon
LOX IMVI melanoma = system: LOX IMVI melanoma
M14 melanoma = system: M14 melanoma
MALME-3M melanoma = system: MALME-3M melanoma
MCF7 breast = system: MCF7 breast
MDA-MB-231 breast = system: MDA-MB-231 breast
MDA-MB-435 = system: MDA-MB-435
MOLT-4 leukemia = system: MOLT-4 leukemia
NCI-H226 lung = system: NCI-H226 lung

Q: Which GI50 (786-0 renal) does the source give for `COC1=C(OC)C(=O)C(CCCCCCCCCCO)=C(C)C1=O` here?
A: The GI50 was 9.61 µM.

Q: And the TGI (786-0 renal)?
A: The TGI was 21.7 µM.

Q: And the GI50 (A498 renal)?
A: The GI50 was 13.1 µM.

Q: And the TGI (A498 renal)?
A: The TGI was 26.6 µM.

Q: And the GI50 (A549 NSCLC)?
A: Its GI50 is 15.3 µM.

Q: What about the TGI (A549 NSCLC) of the same compound?
A: Its TGI is 34.8 µM.

Q: What about the GI50 (ACHN renal) of the same compound?
A: The GI50 was 3.35 µM.

Q: What about the TGI (ACHN renal) of the same compound?
A: Its TGI is 11.2 µM.

Q: And the GI50 (BT-549 breast)?
A: Its GI50 is 12.7 µM.

Q: What about the TGI (BT-549 breast) of the same compound?
A: The TGI was 25.9 µM.

Q: What about the GI50 (CAKI-1 renal) of the same compound?
A: Its GI50 is 4.01 µM.

Q: What about the TGI (CAKI-1 renal) of the same compound?
A: Its TGI is 29 µM.

Q: And the GI50 (CCRF-CEM leukemia)?
A: The GI50 was 3.15 µM.

Q: What about the TGI (CCRF-CEM leukemia) of the same compound?
A: The TGI was 20.4 µM.

Q: And the GI50 (COLO 205 colon)?
A: The GI50 was 19.6 µM.

Q: What about the TGI (COLO 205 colon) of the same compound?
A: Its TGI is 34 µM.

Q: What about the GI50 (DU-145 prostate) of the same compound?
A: Its GI50 is 7.77 µM.

Q: What about the TGI (DU-145 prostate) of the same compound?
A: The TGI was 22.4 µM.

Q: And the GI50 (EKVX NSCLC)?
A: Its GI50 is 5.89 µM.

Q: And the TGI (EKVX NSCLC)?
A: Its TGI is 21.8 µM.

Q: And the GI50 (HCC-2998 colon)?
A: Its GI50 is 16.3 µM.

Q: What about the TGI (HCC-2998 colon) of the same compound?
A: The TGI was 33.5 µM.

Q: What about the GI50 (HCT-116 colon) of the same compound?
A: The GI50 was 4.46 µM.

Q: What about the TGI (HCT-116 colon) of the same compound?
A: The TGI was 16.1 µM.

Q: And the GI50 (HCT-15 colon)?
A: The GI50 was 8.81 µM.

Q: And the TGI (HCT-15 colon)?
A: Its TGI is 24.5 µM.

Q: And the GI50 (HL-60(TB) leukemia)?
A: Its GI50 is 3.71 µM.

Q: And the TGI (HL-60(TB) leukemia)?
A: The TGI was 11.5 µM.

Q: And the GI50 (HOP-62 NSCLC)?
A: The GI50 was 16 µM.

Q: What about the TGI (HOP-62 NSCLC) of the same compound?
A: The TGI was 29.5 µM.

Q: And the GI50 (HOP-92 NSCLC)?
A: Its GI50 is 2.53 µM.

Q: What about the TGI (HOP-92 NSCLC) of the same compound?
A: The TGI was 9.84 µM.

Q: What about the GI50 (HS 578T breast) of the same compound?
A: The GI50 was 18.3 µM.

Q: What about the TGI (HS 578T breast) of the same compound?
A: The TGI was greater than 100 µM.

Q: And the GI50 (HT29 colon)?
A: Its GI50 is 14.5 µM.

Q: What about the TGI (HT29 colon) of the same compound?
A: Its TGI is 31.6 µM.

Q: What about the GI50 (IGROV1 ovarian) of the same compound?
A: Its GI50 is 9.74 µM.

Q: And the TGI (IGROV1 ovarian)?
A: Its TGI is 29.7 µM.

Q: And the GI50 (KM12 colon)?
A: Its GI50 is 15.1 µM.

Q: And the TGI (KM12 colon)?
A: Its TGI is 58.1 µM.

Q: What about the GI50 (LOX IMVI melanoma) of the same compound?
A: The GI50 was 0.964 µM.

Q: And the TGI (LOX IMVI melanoma)?
A: Its TGI is 9.72 µM.

Q: And the GI50 (M14 melanoma)?
A: Its GI50 is 15 µM.

Q: What about the TGI (M14 melanoma) of the same compound?
A: The TGI was 31 µM.

Q: What about the GI50 (MALME-3M melanoma) of the same compound?
A: The GI50 was 7.47 µM.

Q: What about the TGI (MALME-3M melanoma) of the same compound?
A: The TGI was 21.8 µM.

Q: And the GI50 (MCF7 breast)?
A: Its GI50 is 1.96 µM.

Q: And the TGI (MCF7 breast)?
A: Its TGI is 4.45 µM.

Q: What about the GI50 (MDA-MB-231 breast) of the same compound?
A: Its GI50 is 5.24 µM.

Q: What about the TGI (MDA-MB-231 breast) of the same compound?
A: Its TGI is 22 µM.

Q: What about the GI50 (MDA-MB-435) of the same compound?
A: Its GI50 is 1.89 µM.

Q: What about the TGI (MDA-MB-435) of the same compound?
A: The TGI was 3.9 µM.

Q: What about the GI50 (MOLT-4 leukemia) of the same compound?
A: Its GI50 is 4.54 µM.

Q: What about the TGI (MOLT-4 leukemia) of the same compound?
A: Its TGI is 21.7 µM.

Q: And the GI50 (NCI-H226 lung)?
A: The GI50 was 13.8 µM.

Q: What about the TGI (NCI-H226 lung) of the same compound?
A: Its TGI is 29.9 µM.
